The results in this text go back to patent publication US20110207779A1, “PROCESS FOR THE PREPARATION OF ESOMEPRAZOLE MAGNESIUM” (GLENMARK GENERICS LTD, priority 2010, published 2011).

A short description of the series: R-isomer content of formulated esomeprazole magnesium dihydrate after incubation in a closed container (chiral HPLC). The settings on record: formulated in above mentioned dosage forms (capsules, mini-tablets); incubated in a closed container; temperature and time not given. Format: physicochemical. On the procedure:
The content of R-isomer in esomeprazole magnesium dihydrate was measured by chiral high performance liquid chromatography equipped with quaternary gradient pumps, variable wavelength UV detector attached with data recorder and integrator software under the following conditions:
Buffer preparation: mix 70 mL of 156.0 g/l solution of sodium dihydrogen phosphate R with 20 mL of a 179.1 g/l solution of disodium hydrogen phosphate R. Dilute with water to 1000 mL and then dilute 250 mL of this solution with water to 1000 ml. Mobile phase: Acetonitrile: buffer solution pH 6.0 (65:435, v/v).

On to `COc1ccc2[n-]c([S@@+]([O-])Cc3ncc(C)c(OC)c3C)nc2c1.COc1ccc2[n-]c([S@@+]([O-])Cc3ncc(C)c(OC)c3C)nc2c1.O.O.[Mg+2]` [Esomeprazole magnesium dihydrate, esomeprazole magnesium dihydrate], for which the “R-isomer content after formulation and incubation (chiral stability)” value was “remains within the range of R-isomer content”.
